Experiments:
Human FXIIa = Human FXIIa (Homo sapiens (Human), UniProt P00748); assay: Factor XIIa (FXIIa) inhibitory activity, chromogenic substrate (Pefachrome XIIa) cleavage; assay type: biochemical; conditions: 10 min pre-incubation, Pefachrome XIIa 400 μM
Human alpha-thrombin = Human alpha-thrombin (Homo sapiens (Human), UniProt P00734); assay: Thrombin counterscreen for selectivity, fluorogenic substrate cleavage; assay type: biochemical; conditions: 10 min pre-incubation, Boc-Val-Pro-Arg-AMC 20 μM
Description: Counterscreens for Selectivity:
Thrombin. In a 96-well white opaque plate, 80 μl of assay buffer was added to each well. Test compounds were added, and serially diluted as above, to generate a concentration range of approximately 1-100 μM. Human alpha-thrombin (Enzyme Research Labs) was diluted in assay buffer to a final concentration of 12.5 nM. 80 μl of this enzyme solution was added to the assay wells. The enzyme/compound mixtures were incubated for 10 minutes at room temperature. Fluorogenic substrate (Boc-Val-Pro-Arg-7-amido-4-methylcoumarin; Sigma) was added to assay wells at a final concentration of 20 μM. The assay plate was spun for 1 minute at 1500 g and then read at 37° C. in a SpectraMax M2 plate reader (λex=380 nm and λem=460 nm). Activity was quantified as the rate of change in fluorescence, which corresponds to the rate of substrate cleavage. IC50 values were determined as the concentration of inhibitor that produced 50% of the rate of change of control wells without any inhibitor. For compounds with activity <1 μM, the assay was repeated with a lower concentration range, typically from 10-1000 nM.

Sequence of Human FXIIa (P00748 373-615): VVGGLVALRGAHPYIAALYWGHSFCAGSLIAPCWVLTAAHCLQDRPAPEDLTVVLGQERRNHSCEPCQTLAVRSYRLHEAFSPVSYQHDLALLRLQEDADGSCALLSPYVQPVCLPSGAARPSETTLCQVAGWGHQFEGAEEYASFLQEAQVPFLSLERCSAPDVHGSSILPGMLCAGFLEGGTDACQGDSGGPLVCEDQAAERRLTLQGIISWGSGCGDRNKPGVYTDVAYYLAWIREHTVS
Sequence of Human FXIIa (P00748 20-372 partner): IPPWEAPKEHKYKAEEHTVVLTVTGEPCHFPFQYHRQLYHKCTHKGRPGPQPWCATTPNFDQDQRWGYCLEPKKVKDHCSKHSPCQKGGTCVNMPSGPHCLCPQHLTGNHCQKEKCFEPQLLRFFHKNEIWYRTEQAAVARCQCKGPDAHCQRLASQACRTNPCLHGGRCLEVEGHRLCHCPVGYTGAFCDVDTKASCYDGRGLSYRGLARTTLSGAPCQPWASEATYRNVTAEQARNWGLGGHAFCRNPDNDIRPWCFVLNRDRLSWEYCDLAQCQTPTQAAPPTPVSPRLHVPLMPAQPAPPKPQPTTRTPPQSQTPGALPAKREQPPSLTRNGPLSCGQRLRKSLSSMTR

| Structure (SMILES) | IC50 (Human FXIIa) | IC50 (Human alpha-thrombin) |
| --- | --- | --- |
| CCN1CCc2c(nn(C(=O)[C@H]3CCNc4ccc(F)cc43)c2N)C1 (single isomer, unassigned) [Example 165, (S*)-(3-amino-6-ethyl-4,5,6,7-tetrahydro-pyrazolo[3,4-c]pyridin-2-yl)(6-fluoro-1,2,3,4-tetrahydro-quinolin-4-yl)methanone] | 30 nM | > 75000 nM |
| CC1(C)CC(C(=O)n2nc3c(c2N)CCN(S(C)(=O)=O)C3)c2ccccc2N1 (centres unmarked) [Example 39, (3-amino-6-(methylsulfonyl)-4,5,6,7-tetrahydropyrazolo[3,4-c]pyridin-2-yl)(2,2-dimethyl-1,2,3,4-tetrahydroquinolin-4-yl)methanone] | 150 nM | 45000 nM |
| CS(=O)(=O)N1CCc2c(nn(C(=O)C3CCNc4ccc(-c5ccncc5)cc43)c2N)C1 (centres unmarked) [Example 168, (3-amino-6-(methylsulfonyl)-4,5,6,7-tetrahydro-pyrazolo[3,4-c]pyridin-2-yl)(6-(pyridin-4-yl)-1,2,3,4-tetrahydro-quinolin-4-yl)methanone] | 2000 nM | 3500 nM |
| CCS(=O)(=O)N1CCc2c(nn(C(=O)C3CCNc4ccccc43)c2N)C1 (centres unmarked) [Example 125, (3-amino-6-(ethylsulfonyl)-4,5,6,7-tetrahydro-pyrazolo[3,4-c]pyridin-2-yl)(1,2,3,4-tetrahydro-quinolin-4-yl)methanone] | 250 nM | 100000 nM |
| Cn1cc2c(c1)C(C(=O)n1nc3c(c1N)CCN(S(C)(=O)=O)C3)CCC2 (centres unmarked) [Example 26, (3-amino-6-(methylsulfonyl)-4,5,6,7-tetrahydropyrazolo[3,4-c]pyridin-2-yl)(2-methyl-4,5,6,7-tetrahydro-2H-isoindol-4-yl)methanone] | 150 nM | 4500 nM |
| CCc1ccc2c(c1)C(C(=O)n1nc3c(c1N)CCN(S(C)(=O)=O)C3)CCN2 (centres unmarked) [Example 30, (3-amino-6-(methylsulfonyl)-4,5,6,7-tetrahydropyrazolo[3,4-c]pyridin-2-yl)(6-ethyl-1,2,3,4-tetrahydroquinolin-4-yl)methanone] | 50 nM | 22000 nM |
| Nc1c2c(nn1C(=O)C1CCNc3ccc(F)cc31)CN(c1ccccn1)CC2 (centres unmarked) [Example 167, (3-amino-6-(pyridin-2-yl)-4,5,6,7-tetrahydro-pyrazolo[3,4-c]pyridin-2-yl)(6-fluoro-1,2,3,4-tetrahydro-quinolin-4-yl)methanone] | 60000 nM | > 120000 nM |
| Nc1c2c(nn1C(=O)C1CCNc3ccc(F)cc31)CN(S(=O)(=O)CC(F)F)CC2 (centres unmarked) [Example 142, (3-amino-6-(2,2-difluoroethyl-sulfonyl)-4,5,6,7-tetrahydro-pyrazolo[3,4-c]pyridin-2-yl)(6-fluoro-1,2,3,4-tetrahydro-quinolin-4-yl)methanone] | 200 nM | 40000 nM |
| CS(=O)(=O)N1CCc2c(N)nn(C(=O)C3CCNc4ccc(Cl)cc43)c2C1 (centres unmarked) [Example 15, (3-amino-6-(methylsulfonyl)-4,5,6,7-tetrahydropyrazolo[3,4-c]pyridin-1-yl)(6-chloro-1,2,3,4-tetrahydroquinolin-4-yl)methanone] | > 65000 nM | > 70000 nM |
| Nc1c2c(nn1C(=O)[C@H]1CCNc3ccc(F)cc31)CNCC2 (single isomer, unassigned) [Example 146, (S*)-(3-amino-4,5,6,7-tetrahydro-pyrazolo[3,4-c]pyridin-2-yl)(6-fluoro-1,2,3,4-tetrahydro-quinolin-4-yl)methanone] | 70 nM | > 90000 nM |
| CC(C)C(=O)N1CCc2c(nn(C(=O)C3CCNc4ccccc43)c2N)C1 (centres unmarked) [Example 121, 1-(3-amino-2-(1,2,3,4-tetrahydro-quinoline-4-carbonyl)-4,5-dihydro-2H-pyrazolo[3,4-c]pyridin-6(7H)-yl)-2-methylpropan-1-one] | 400 nM | > 80000 nM |
| CC(=O)N1CCc2c(nn(C(=O)C3CCNc4ccccc43)c2N)C1 (centres unmarked) [Example 107, 1-(3-amino-2-(1,2,3,4-tetrahydro-quinoline-4-carbonyl)-4,5-dihydro-2H-pyrazolo[3,4-c]pyridin-6(7H)-yl)ethanone] | 1800 nM | > 40000 nM |
| CS(=O)(=O)N1CCc2c(nn(C(=O)C3CCNc4c(F)cccc43)c2N)C1 (centres unmarked) [Example 37, (3-amino-6-(methylsulfonyl)-4,5,6,7-tetrahydropyrazolo[3,4-c]pyridin-2-yl)(8-fluoro-1,2,3,4-tetrahydroquinolin-4-yl)methanone] | 100 nM | 25000 nM |
| CC(C)S(=O)(=O)N1CCc2c(nn(C(=O)C3CCNc4ccc(F)cc43)c2N)C1 (centres unmarked) [Example 136, (3-amino-6-(isopropyl-sulfonyl)-4,5,6,7-tetrahydro-pyrazolo[3,4-c]pyridin-2-yl)(6-fluoro-1,2,3,4-tetrahydro-quinolin-4-yl)methanone] | 80 nM | > 55000 nM |
| CC(C)c1ccc2c(c1)C(C(=O)n1nc3c(c1N)CCN(S(C)(=O)=O)C3)CCN2 (centres unmarked) [Example 45, (3-amino-6-(methylsulfonyl)-4,5,6,7-tetrahydropyrazolo[3,4-c]pyridin-2-yl)(6-isopropyl-1,2,3,4-tetrahydroquinolin-4-yl)methanone] | 2200 nM | 45000 nM |
| Nc1c2c(nn1C(=O)C1CCNc3ccc(F)cc31)CCOC2 (centres unmarked) [Example 74, (3-amino-6,7-dihydropyrano[4,3-c]pyrazol-2(4H)-yl)(6-fluoro-1,2,3,4-tetrahydroquinolin-4-yl)methanone] | 80 nM | 50000 nM |
| Nc1nn(C(=O)C2CCNc3ccccc32)c2c1CCN(C(=O)c1ccccc1)C2 (centres unmarked) [Example 110, (3-amino-1-(1,2,3,4-tetrahydro-quinoline-4-carbonyl)-4,5-dihydro-1H-pyrazolo[3,4-c]pyridin-6(7H)-yl)(phenyl)-methanone] | 60000 nM | > 65000 nM |
| CC(=O)N1CCc2nn(C(=O)C3CCNc4ccccc43)c(N)c2C1 (centres unmarked) [Example 95, 1-(3-amino-2-(1,2,3,4-tetrahydro-quinoline-4-carbonyl)-6,7-dihydro-2H-pyrazolo[4,3-c]pyridin-5(4H)-yl)ethanone] | 700 nM | > 50000 nM |
| CS(=O)(=O)N1CCc2c(nn(C(=O)C3CCNc4c(Cl)cccc43)c2N)C1 (single isomer, unassigned) [Example 60, (S*)-(3-amino-6-(methylsulfonyl)-4,5,6,7-tetrahydropyrazolo[3,4-c]pyridin-2-yl)(8-chloro-1,2,3,4-tetrahydroquinolin-4-yl)methanone] | 30 nM | > 60000 nM |
| Cc1cccc2c1NCC[C@@H]2C(=O)n1nc2c(c1N)CCOC2 (single isomer, unassigned) [Example 198, (S*)-(3-amino-4,5-dihydropyrano[3,4-c]pyrazol-2(7H)-yl)(8-methyl-1,2,3,4-tetrahydro-quinolin-4-yl)methanone] | 90 nM | > 150000 nM |
| CC(=O)N1CCc2c(N)nn(C(=O)C3CCNc4ccccc43)c2C1 (centres unmarked) [Example 108, 1-(3-amino-1-(1,2,3,4-tetrahydro-quinoline-4-carbonyl)-4,5-dihydro-1H-pyrazolo[3,4-c]pyridin-6(7H)-yl)ethanone] | 80000 nM | > 150000 nM |
| CCN1CCc2c(N)nn(C(=O)C3CCNc4ccccc43)c2C1 (centres unmarked) [Example 21, (3-amino-6-ethyl-4,5,6,7-tetrahydropyrazolo[3,4-c]pyridin-1-yl)(1,2,3,4-tetrahydroquinolin-4-yl)methanone] | 1500 nM | > 50000 nM |
| CCN1CCc2c(nn(C(=O)C3CCNc4ccc(Cl)cc43)c2N)C1 (centres unmarked) [Example 161, (3-amino-6-ethyl-4,5,6,7-tetrahydro-pyrazolo[3,4-c]pyridin-2-yl)(6-chloro-1,2,3,4-tetrahydro-quinolin-4-yl)methanone] | 50 nM | 20000 nM |
| CS(=O)(=O)N1CCc2c(nn(C(=O)C3CCNc4ncccc43)c2N)C1 (centres unmarked) [Example 41, (3-amino-6-(methylsulfonyl)-4,5,6,7-tetrahydropyrazolo[3,4-c]pyridin-2-yl)(1,2,3,4-tetrahydro-1,8-naphthyridin-4-yl)methanone] | 1700 nM | 4400 nM |
| Cc1cc(F)cc2c1NCCC2C(=O)n1nc2c(c1N)CCOC2 (single isomer, unassigned) [Example 76, (S*)-(3-amino-4,5-dihydropyrano[3,4-c]pyrazol-2(7H)-yl)(6-fluoro-8-methyl-1,2,3,4-tetrahydroquinolin-4-yl)methanone] | 50 nM | > 100000 nM |
| CNS(=O)(=O)N1CCc2c(nn(C(=O)C3CCNc4ccccc43)c2N)C1 (centres unmarked) [Example 111, 3-amino-N-methyl-2-(1,2,3,4-tetrahydro-quinoline-4-carbonyl)-4,5-dihydro-2H-pyrazolo[3,4-c]pyridine-6(7H)-sulfonamide] | 2000 nM | > 50000 nM |
| COC(=O)N1CCc2nn(C(=O)C3CCNc4ccccc43)c(N)c2C1 (centres unmarked) [Example 87, methyl 3-amino-2-(1,2,3,4-tetrahydro-quinoline-4-carbonyl)-6,7-dihydro-2H-pyrazolo[4,3-c]pyridine-5(4H)-carboxylate] | 800 nM | > 100000 nM |
| CCc1cc(C)c2c(c1)C(C(=O)n1nc3c(c1N)CCN(S(C)(=O)=O)C3)CCN2 (single isomer, unassigned) [Example 69, (3-amino-6-(methylsulfonyl)-4,5,6,7-tetrahydropyrazolo[3,4-c]pyridin-2-yl)((S*)-6-ethyl-8-methyl-1,2,3,4-tetrahydroquinolin-4-yl)methanone] | 10 nM | 40000 nM |

Source: US11312723B2, “Pyranopyrazole and pyrazolopyridine immunomodulators for treatment of autoimmune diseases” (The Rockefeller University, priority 2017, dated 2022)
